Converted amounts (≈) assume the structure as drawn. Where two headings read alike, the source gives them in different places.
Key:
[1] = test system: Staphylococcus aureus ATCC 29213; assay: Broth microdilution MIC assay, quality control strain (Example 2); assay type: cell-based; settings: ATCC29213, S. aureus ATCC 29213 (QC), CAMHB
Method in brief: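 CLSI broth microdilution in cation-adjusted Mueller Hinton broth, 2-fold serial drug dilutions, inoculum about 5×10^5 CFU/mL. Plates incubated 16 to 20 hr at 35° C in ambient air. MIC is the lowest concentration inhibiting visible growth.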

[2] = test system: Neisseria gonorrhoeae; assay: Broth microdilution MIC assay, 30 isolates (Example 2); assay type: cell-based
Procedure: In this study, the in vitro spectrum of activity of CBD was determined against 30 isolates comprised of reference strains from the WHO, isolates from the CDC antibiotic resistance bank, and clinical isolates from the Micromyx (MMX) repository, with different resistance phenotypes. Assays were conducted following guidelines recommended by the Clinical and Laboratory Standards Institute (CLSI; 1, 2) with the exception that broth microdilution was used instead of agar dilution.
Stock solutions of all compounds were prepared on the day of testing using solvents recommended by CLSI. Stock solutions of all compounds were made at 101× the final testing concentration. CBD was supplied by Cerilliant (Round Rock, Tex.) as a 1 mg/mL methanolic solution which was stored at −20° C. after receipt. Prior to testing, using a 5 mL aliquot of the CBD methanolic solution, the methanol was dried off and the residual CBD was resuspended in 774 μL DMSO resulting in a 6.464 mg/mL solution.
The test organisms evaluated in this study consisted of Neisseria gonorrhoeae isolates from the Micromyx repository and reference isolates from the American Type Culture Collection (ATCC; Manassas, Va.), Centers for Disease Control and Prevention (CDC; Atlanta, Ga.) or the National Collection of Type Cultures (NCTC; Public Health England, Salisbury, UK). Upon initial receipt at Micromyx, the organisms were sub-cultured onto an appropriate agar medium.
Following incubation, colonies were harvested from these plates and cell suspensions prepared and frozen at −80° C. with a cryoprotectant. Prior to testing, N. gonorrhoeae isolates were streaked onto Chocolate Agar [Becton Dickinson, (BD), Sparks, Md.; Lot No. 922807]; Staphylococcus aureus ATCC 29213 tested for quality control (QC) purposes was streaked onto Trypticase Soy Agar with 5% Sheep Blood (TSA II; BD; Lot No. 9219399).
For N. gonorrhoeae, a modified medium described by the ATCC as capable of supporting the growth of N. gonorrhoeae (Neisseria peptone medium) was used for the broth microdilution MIC assay. This medium contained 15 g Oxoid Special Peptone (Lot No. 1280296; Oxoid, Hampshire, UK), 1 g corn starch (Lot No. AD-13344-14; Ward's Science; Rochester, N.Y.), 5 g NaCl (Lot No. 57897; VWR, Radnor, Pa.), 4 g K2HPO4 (Lot No. SLBT7061; Sigma), and 1 g KH2PO4 (Lot No. SLBC1921V; Sigma). After autoclaving, the medium was centrifuged at 5,000×g for 10 min, the supernatant was passed through a 0.45 μm filter, and IsoVitaleX supplement (Lot No. 8323954; BD) was added at 1% (v/v).
MIC values were determined using a broth microdilution procedure described by CLSI (1, 2). Automated liquid handlers (Multidrop 384, Labsystems, Helsinki, Finland; Biomek 2000 and Biomek FX, Beckman Coulter, Fullerton Calif.) were used to conduct serial dilutions and liquid transfers.
To prepare the drug mother plates, which would provide the serial drug dilutions for the replicate daughter plates, the wells of columns 2 through 12 of standard 96-well microdilution plates (Costar 3795) were filled with 150 μl of the designated diluent for each row of drug. The test articles and comparator compounds (300 μl at 100× the highest concentration to be tested) were dispensed into the appropriate wells in column 1. The Biomek 2000 was then used to make 2-fold serial dilutions in the mother plates from column 1 through column 11. The wells of column 12 contained no drug and served as the organism growth control wells for the assay.
The daughter plates were loaded with 190 μL per well of the appropriate test medium for the tested organism using the Multidrop 384. The daughter plates were completed on the Biomek FX instrument which transferred 2 μL of drug solution from each well of a mother plate to the corresponding well of each daughter plate in a single step. Daughter plates for the testing of anaerobes were allowed to pre-reduce in the Bactron II anaerobe chamber for 2 hr prior to inoculation.

[3] = test system: Staphylococcus aureus ATCC 29213; settings: S. aureus ATCC 29213, CLSI QC ranges shown in parentheses, cited from earlier work
[4] = 30 isolates of N. gonorrhoeae, broth microdilution
[5] = 30 isolates of N. gonorrhoeae, broth microdilution, MIC distribution
[6] = 30 isolates, broth dilution assay, MIC distribution (Table 6)

## CO/N=C(\C(=O)N[C@@H]1C(=O)N2C(C(=O)O)=C(CSc3nc(=O)c(=O)[nH]n3C)CS[C@H]12)c1csc(N)n1 [CRO, ceftriaxone]
[1]
  MIC: 2 µg/mL (≈ 3.61 µM)
[2]; [4]
  MIC50: ≤0.008 µg/mL
  MIC Range: ≤0.008 − 1 μg/mL
[2]; [5]
  Number of isolates at MIC value 0.015 μg/mL: 5
  Number of isolates at MIC value 0.03 μg/mL: 2
  Number of isolates at MIC value 0.06 μg/mL: 1
  Number of isolates at MIC value 0.5 μg/mL: 1
  Number of isolates at MIC value 1 μg/mL: 1
  Number of isolates at MIC value 2 μg/mL: 0
  Number of isolates at MIC value 4 μg/mL: 0
  Number of isolates at MIC value 8 μg/mL: 0
  Number of isolates at MIC value <0.008 μg/mL: 20
  Number of isolates at MIC value >8 μg/mL: 0
  Number of isolates at MIC value […]: 0
[2]; 30 isolates of N. gonorrhoeae, broth microdilution, listed as ceftriaxone
  MIC Range: ≤0.008 to 1 µg/mL
[2]; [6]
  Number of isolates at MIC 0.08 μg mL^−1: 0
  Number of isolates at MIC ≤0.004 μg mL^−1: 20
[2]; N. gonorrhoeae ATCC 49226 (QC), broth microdilution
  MIC: £0.008 μg/mL
[2]; Neisseria gonorrhoeae, ATCC49226, N. gonorrhoeae ATCC 49226 (QC), broth microdilution, read-out: MIC
  MIC: ≤ 0.008 µg/mL
[2]; Neisseria gonorrhoeae, N. gonorrhoeae CDC 0165 (CIP-R, AZI MIC 1), broth microdilution, read-out: MIC
  MIC: 0.015 µg/mL (≈ 0.027 µM)
[2]; Neisseria gonorrhoeae, N. gonorrhoeae CDC 0166 (CIP-R, AZI MIC 1), broth microdilution, read-out: MIC
  MIC: 0.015 µg/mL (≈ 0.027 µM)
[2]; Neisseria gonorrhoeae, N. gonorrhoeae CDC 0167 (CIP-S, AZI MIC 8), broth microdilution, read-out: MIC
  MIC: ≤ 0.008 µg/mL
[2]; Neisseria gonorrhoeae, N. gonorrhoeae CDC 0172 (CIP-R, AZI MIC 0.5), broth microdilution, read-out: MIC
  MIC: ≤ 0.008 µg/mL
[2]; Neisseria gonorrhoeae, N. gonorrhoeae CDC 0175 (CIP-S, AZI MIC 16), broth microdilution, read-out: MIC
  MIC: ≤ 0.008 µg/mL
[2]; Neisseria gonorrhoeae, N. gonorrhoeae CDC 0177 (CIP-S, AZI MIC 2), broth microdilution, read-out: MIC
  MIC: ≤ 0.008 µg/mL
[2]; Neisseria gonorrhoeae, N. gonorrhoeae CDC 0181 (CIP-S, AZI MIC 256), broth microdilution, read-out: MIC
  MIC: ≤ 0.008 µg/mL
[2]; Neisseria gonorrhoeae, N. gonorrhoeae CDC 0194 (CRO-NS, CIP-S, AZI MIC 0.5), broth microdilution, read-out: MIC
  MIC: 0.03 µg/mL (≈ 0.0541 µM)
[2]; Neisseria gonorrhoeae, N. gonorrhoeae MMX 6921 (CIP-R), broth microdilution, read-out: MIC
  MIC: ≤ 0.008 µg/mL
[2]; Neisseria gonorrhoeae, N. gonorrhoeae MMX 6938 (CIP-S), broth microdilution, read-out: MIC
  MIC: ≤ 0.008 µg/mL
[2]; Neisseria gonorrhoeae, N. gonorrhoeae MMX 10409 (CIP-R), broth microdilution, read-out: MIC
  MIC: 0.015 µg/mL (≈ 0.027 µM)
[2]; Neisseria gonorrhoeae, N. gonorrhoeae MMX 10410 (CIP-S), broth microdilution, read-out: MIC
  MIC: ≤ 0.008 µg/mL
[2]; Neisseria gonorrhoeae, N. gonorrhoeae MMX 10447 (CIP-S), broth microdilution, read-out: MIC
  MIC: ≤ 0.008 µg/mL
[2]; Neisseria gonorrhoeae, N. gonorrhoeae MMX 10450 (CIP-S), broth microdilution, read-out: MIC
  MIC: ≤ 0.008 µg/mL
[2]; Neisseria gonorrhoeae, N. gonorrhoeae MMX 10452 (CIP-R), broth microdilution, read-out: MIC
  MIC: ≤ 0.008 µg/mL
[2]; Neisseria gonorrhoeae, N. gonorrhoeae MMX 10454 (CIP-R), broth microdilution, read-out: MIC
  MIC: 0.015 µg/mL (≈ 0.027 µM)
[2]; Neisseria gonorrhoeae, NCTC13477, N. gonorrhoeae NCTC 13477 (WHO F; CIP-S, AZI MIC […]), broth microdilution, read-out: MIC
  MIC: ≤ 0.008 µg/mL
[2]; Neisseria gonorrhoeae, NCTC13478, N. gonorrhoeae NCTC 13478 (WHO G; CIP-I, AZI MIC […]), broth microdilution, read-out: MIC
  MIC: ≤ 0.008 µg/mL
[2]; Neisseria gonorrhoeae, NCTC13479, N. gonorrhoeae NCTC 13479 (WHO K; CIP-R, AZI MIC […]), broth microdilution, read-out: MIC
  MIC: 0.03 µg/mL (≈ 0.0541 µM)
[2]; Neisseria gonorrhoeae, NCTC13480, N. gonorrhoeae NCTC 13480 (WHO L; CIP-R, AZI MIC 0.5), broth microdilution, read-out: MIC
  MIC: 0.06 µg/mL (≈ 0.108 µM)
[2]; Neisseria gonorrhoeae, NCTC13481, N. gonorrhoeae NCTC 13481 (WHO M; CIP-R, AZI MIC […]), broth microdilution, read-out: MIC
  MIC: ≤ 0.008 µg/mL
[2]; Neisseria gonorrhoeae, NCTC13482, N. gonorrhoeae NCTC 13482 (WHO N; CIP-R, AZI MIC […]), broth microdilution, read-out: MIC
  MIC: ≤ 0.008 µg/mL
[2]; Neisseria gonorrhoeae, NCTC13483, N. gonorrhoeae NCTC 13483 (WHO O; CIP-S, AZI MIC […]), broth microdilution, read-out: MIC
  MIC: ≤ 0.008 µg/mL
[2]; Neisseria gonorrhoeae, NCTC13484, N. gonorrhoeae NCTC 13484 (WHO P; CIP-S, AZI MIC 4), broth microdilution, read-out: MIC
  MIC: ≤ 0.008 µg/mL
[2]; Neisseria gonorrhoeae, NCTC13817, N. gonorrhoeae NCTC 13817 (WHO U; CIP-S, AZI MIC 4), broth microdilution, read-out: MIC
  MIC: ≤ 0.008 µg/mL
[2]; Neisseria gonorrhoeae, NCTC13818, N. gonorrhoeae NCTC 13818 (WHO V; CIP-R, AZI MIC >256), broth microdilution, read-out: MIC
  MIC: ≤ 0.008 µg/mL
[2]; Neisseria gonorrhoeae, NCTC13819, N. gonorrhoeae NCTC 13819 (WHO W; CIP-R, AZI MIC 0.5), broth microdilution, read-out: MIC
  MIC: 0.015 µg/mL (≈ 0.027 µM)
[2]; Neisseria gonorrhoeae, NCTC13820, N. gonorrhoeae NCTC 13820 (WHO X; CRO-NS, CIP-R, AZI MIC 0.5), broth microdilution, read-out: MIC
  MIC: 1 µg/mL (≈ 1.8 µM)
[2]; Neisseria gonorrhoeae, NCTC13821, N. gonorrhoeae NCTC 13821 (WHO Y; CIP-R, AZI MIC 1), broth microdilution, read-out: MIC
  MIC: 0.5 µg/mL (≈ 0.902 µM)
[2]; Neisseria gonorrhoeae, 30 isolates of N. gonorrhoeae, broth microdilution, read-out: MIC50
  MIC50: ≤ 0.008 µg/mL
[2]; Neisseria gonorrhoeae, 30 isolates of N. gonorrhoeae, broth microdilution, read-out: MIC90
  MIC90: 0.03 µg/mL (≈ 0.0541 µM)
[2]; Neisseria gonorrhoeae, 30 isolates of N. gonorrhoeae, broth microdilution, read-out: MIC Mode
  MIC: ≤ 0.008 µg/mL
[3]
  CLSI QC range of MIC: 1 to 8 µg/mL
[3]; listed as Ceftriaxone
  CLSI QC range of MIC: (1-8)^1 μg/mL
